Measured values reported in ChEMBL document CHEMBL1149520, “Cyclopentane-based human NK1 antagonists. Part 1: discovery and initial SAR” (Bioorg Med Chem Lett, 2006).
Converted amounts (≈) assume the structure as drawn.

System: not listed separately
Assay: Bioavailability in orally dosed rat
Type: ADME, organism-based
Conditions: in vivo, po

| bioavailability [%] | SMILES |
| --- | --- |
| 53 | C[C@@H](O[C@H]1OCCN(Cc2n[nH]c(=O)[nH]2)[C@H]1c1ccc(F)cc1)c1cc(C(F)(F)F)cc(C(F)(F)F)c1 [APREPITANT] |

Species on record: Cavia porcellus
Assay: animal or person
Conditions: Plasma, po, read-out: Inhibition

| SMILES | inhibition in vivo at 1 mg/kg [%] |
| --- | --- |
| NC(=O)CN[C@@H]1CC[C@H](OCc2cc(C(F)(F)F)cc(C(F)(F)F)c2)[C@H]1c1ccccc1 (racemic) | 60 |
| COC(=O)N[C@@H]1CC[C@H](OCc2cc(C(F)(F)F)cc(C(F)(F)F)c2)[C@H]1c1ccccc1 (racemic) | < 25 |

System: not listed separately
Assay: Bioavailability in orally dosed dog
Type: ADME, organism-based, Canis lupus familiaris
Conditions: in vivo, po

| bioavailability [%] | SMILES |
| --- | --- |
| 40 | C[C@@H](O[C@H]1OCCN(Cc2n[nH]c(=O)[nH]2)[C@H]1c1ccc(F)cc1)c1cc(C(F)(F)F)cc(C(F)(F)F)c1 [APREPITANT] |

Molecular target: Substance-P receptor (Homo sapiens, UniProt P25103)
Sequence (P25103 whole entry): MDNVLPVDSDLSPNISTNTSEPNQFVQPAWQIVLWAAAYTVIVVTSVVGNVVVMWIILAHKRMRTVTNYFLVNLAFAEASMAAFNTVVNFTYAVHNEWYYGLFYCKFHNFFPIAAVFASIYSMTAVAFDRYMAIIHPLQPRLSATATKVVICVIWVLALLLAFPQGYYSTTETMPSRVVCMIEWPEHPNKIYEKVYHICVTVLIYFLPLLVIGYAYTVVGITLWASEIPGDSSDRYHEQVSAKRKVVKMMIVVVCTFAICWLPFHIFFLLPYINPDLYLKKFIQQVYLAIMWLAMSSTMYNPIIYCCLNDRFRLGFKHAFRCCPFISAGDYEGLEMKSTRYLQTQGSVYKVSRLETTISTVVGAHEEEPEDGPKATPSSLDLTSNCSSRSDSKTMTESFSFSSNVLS
Assay: biochemical
Conditions: not given

| SMILES | IC50 [nM] |
| --- | --- |
| NC(=O)CN[C@@H]1CC[C@H](OCc2cc(C(F)(F)F)cc(C(F)(F)F)c2)[C@H]1c1ccccc1 (relative stereo) | 0.95 |
| O=C1CC[C@@H](CN[C@H]2CC[C@@H](OCc3cc(C(F)(F)F)cc(C(F)(F)F)c3)[C@@H]2c2ccccc2)N1 | 260 |
| O=c1[nH]cc(CN[C@@H]2CC[C@H](OCc3cc(C(F)(F)F)cc(C(F)(F)F)c3)[C@H]2c2ccccc2)[nH]1 (racemic) | 5.2 |
| FC(F)(F)c1cc(CO[C@H]2CC[C@@H](CN3CCOCC3)[C@@H]2c2ccccc2)cc(C(F)(F)F)c1 (racemic) | 8.2 |
| CN[C@H]1CC[C@H](OCc2cc(C(F)(F)F)cc(C(F)(F)F)c2)[C@@H]1c1ccccc1 (racemic) | 7.2 |
| O=C1CC[C@@H](CN[C@@H]2CC[C@H](OCc3cc(C(F)(F)F)cc(C(F)(F)F)c3)[C@H]2c2ccccc2)N1 | 1.5 |
| OC[C@@H]1CC[C@H](OCc2cc(C(F)(F)F)cc(C(F)(F)F)c2)[C@H]1c1ccccc1 (racemic) | 0.77 |
| NC(=O)N[C@@H]1CC[C@H](OCc2cc(C(F)(F)F)cc(C(F)(F)F)c2)[C@H]1c1ccccc1 (racemic) | 3.5 |
| CNC(=O)N[C@@H]1CC[C@H](OCc2cc(C(F)(F)F)cc(C(F)(F)F)c2)[C@H]1c1ccccc1 (racemic) | 2.7 |
| CN(Cc1n[nH]c(=O)[nH]1)C[C@@H]1CC[C@H](OCc2cc(C(F)(F)F)cc(C(F)(F)F)c2)[C@H]1c1ccccc1 (racemic) | 2 |
| COC(=O)N[C@H]1CC[C@H](OCc2cc(C(F)(F)F)cc(C(F)(F)F)c2)[C@@H]1c1ccccc1 (racemic) | 5.3 |
| CN(CC(N)=O)[C@@H]1CC[C@H](OCc2cc(C(F)(F)F)cc(C(F)(F)F)c2)[C@H]1c1ccccc1 (racemic) | 2.7 |
| NC[C@@H]1CC[C@H](OCc2cc(C(F)(F)F)cc(C(F)(F)F)c2)[C@H]1c1ccccc1 (racemic) | 2.7 |
| CN(Cc1nnc[nH]1)[C@@H]1CC[C@H](OCc2cc(C(F)(F)F)cc(C(F)(F)F)c2)[C@H]1c1ccccc1 (racemic) | 1.1 |
| CN(Cc1n[nH]c(=O)[nH]1)C[C@H]1CC[C@H](OCc2cc(C(F)(F)F)cc(C(F)(F)F)c2)[C@@H]1c1ccccc1 (racemic) | 4.7 |
| NC(=O)CN[C@H]1CC[C@@H](OCc2cc(C(F)(F)F)cc(C(F)(F)F)c2)[C@@H]1c1ccccc1 (relative stereo) | 45 |
| CN(C[C@@H]1CCC(=O)N1)[C@@H]1CC[C@H](OCc2cc(C(F)(F)F)cc(C(F)(F)F)c2)[C@H]1c1ccccc1 | 0.81 |
| NC(=O)CNC[C@@H]1CC[C@H](OCc2cc(C(F)(F)F)cc(C(F)(F)F)c2)[C@H]1c1ccccc1 (racemic) | 1.9 |
| NC(=O)CN[C@H]1CC[C@H](OCc2cc(C(F)(F)F)cc(C(F)(F)F)c2)[C@@H]1c1ccccc1 (racemic) | 8.3 |
| COC(=O)N(C)[C@@H]1CC[C@H](OCc2cc(C(F)(F)F)cc(C(F)(F)F)c2)[C@H]1c1ccccc1 (racemic) | 6.2 |

Second part, the compound after the results:

| IC50 [nM] | SMILES |
| --- | --- |
| 9.8 | NC(=O)N[C@H]1CC[C@H](OCc2cc(C(F)(F)F)cc(C(F)(F)F)c2)[C@@H]1c1ccccc1 (racemic) |
| 2.3 | N[C@@H]1CC[C@H](OCc2cc(C(F)(F)F)cc(C(F)(F)F)c2)[C@H]1c1ccccc1 (relative stereo) |
| 300 | O=C(N[C@H]1CC[C@H](OCc2cc(C(F)(F)F)cc(C(F)(F)F)c2)[C@@H]1c1ccccc1)OCc1ccccc1 (racemic) |
| 5 | CN(C)C(=O)N[C@@H]1CC[C@H](OCc2cc(C(F)(F)F)cc(C(F)(F)F)c2)[C@H]1c1ccccc1 (racemic) |
| 7.9 | N[C@H]1CC[C@H](OCc2cc(C(F)(F)F)cc(C(F)(F)F)c2)[C@@H]1c1ccccc1 (racemic) |
| 7.2 | NC(=O)[C@@H]1CC[C@H](OCc2cc(C(F)(F)F)cc(C(F)(F)F)c2)[C@H]1c1ccccc1 (racemic) |
| 40 | O=C(N[C@@H]1CC[C@H](OCc2cc(C(F)(F)F)cc(C(F)(F)F)c2)[C@H]1c1ccccc1)OCc1ccccc1 (racemic) |
| 0.83 | CN[C@@H]1CC[C@H](OCc2cc(C(F)(F)F)cc(C(F)(F)F)c2)[C@H]1c1ccccc1 (racemic) |
| 2.1 | CN(CC(N)=O)[C@H]1CC[C@H](OCc2cc(C(F)(F)F)cc(C(F)(F)F)c2)[C@@H]1c1ccccc1 (racemic) |
| 1.3 | NC(=O)CN[C@@H]1CC[C@H](OCc2cc(C(F)(F)F)cc(C(F)(F)F)c2)[C@H]1c1ccccc1 (racemic) |
| 4.9 | CN(CC[C@@H]1CC[C@H](OCc2cc(C(F)(F)F)cc(C(F)(F)F)c2)[C@H]1c1ccccc1)Cc1n[nH]c(=O)[nH]1 (racemic) |
| 5 | FC(F)(F)c1cc(CO[C@H]2CC[C@@H](CN3CCCCC3)[C@@H]2c2ccccc2)cc(C(F)(F)F)c1 (racemic) |
| 0.89 | COC(=O)N[C@@H]1CC[C@H](OCc2cc(C(F)(F)F)cc(C(F)(F)F)c2)[C@H]1c1ccccc1 (racemic) |
| 100 | N[C@H]1CC[C@@H](OCc2cc(C(F)(F)F)cc(C(F)(F)F)c2)[C@@H]1c1ccccc1 (relative stereo) |
| 67 | O=C(O)[C@@H]1CC[C@H](OCc2cc(C(F)(F)F)cc(C(F)(F)F)c2)[C@H]1c1ccccc1 (racemic) |
| 5.7 | N[C@@H]1CC[C@H](OCc2cc(C(F)(F)F)cc(C(F)(F)F)c2)[C@H]1c1ccccc1 (racemic) |
| 1.9 | CNC[C@@H]1CC[C@H](OCc2cc(C(F)(F)F)cc(C(F)(F)F)c2)[C@H]1c1ccccc1 (racemic) |
| 1.9 | CN(CC(N)=O)C[C@@H]1CC[C@H](OCc2cc(C(F)(F)F)cc(C(F)(F)F)c2)[C@H]1c1ccccc1 (racemic) |
| 16 | CN(C)C(=O)N(C)[C@@H]1CC[C@H](OCc2cc(C(F)(F)F)cc(C(F)(F)F)c2)[C@H]1c1ccccc1 (racemic) |

System: not listed separately
Assay: Dissociation constant, pKa of the compound
Type: physicochemical
Conditions: not given

| SMILES | pKa |
| --- | --- |
| O=c1[nH]nc(CN2CCO[C@H](OCc3cc(C(F)(F)F)cc(C(F)(F)F)c3)[C@@H]2c2ccccc2)[nH]1 | < 3.5 |
| CN(CC(N)=O)[C@@H]1CC[C@H](OCc2cc(C(F)(F)F)cc(C(F)(F)F)c2)[C@H]1c1ccccc1 (racemic) | 5.8 |

Other lines, results leading:

| pKa | SMILES |
| --- | --- |
| < 3.5 | C[C@@H](O[C@H]1OCCN(Cc2n[nH]c(=O)[nH]2)[C@H]1c1ccc(F)cc1)c1cc(C(F)(F)F)cc(C(F)(F)F)c1 [APREPITANT] |
| 6.6 | NC(=O)CN[C@@H]1CC[C@H](OCc2cc(C(F)(F)F)cc(C(F)(F)F)c2)[C@H]1c1ccccc1 (racemic) |

System: not listed separately
Assay: physchem
Conditions: sodium acetate/acetic acid buffer, pH 5

| SMILES | solubility [µg/mL] |
| --- | --- |
| O=C1CC[C@@H](CN[C@@H]2CC[C@H](OCc3cc(C(F)(F)F)cc(C(F)(F)F)c3)[C@H]2c2ccccc2)N1 | 4000 (≈ 7990 µM) |
| CN(Cc1n[nH]c(=O)[nH]1)C[C@@H]1CC[C@H](OCc2cc(C(F)(F)F)cc(C(F)(F)F)c2)[C@H]1c1ccccc1 (racemic) | 200 (≈ 378 µM) |
| CN(CC(N)=O)[C@@H]1CC[C@H](OCc2cc(C(F)(F)F)cc(C(F)(F)F)c2)[C@H]1c1ccccc1 (racemic) | 16 (≈ 33.7 µM) |
| CN(Cc1n[nH]c(=O)[nH]1)C[C@H]1CC[C@H](OCc2cc(C(F)(F)F)cc(C(F)(F)F)c2)[C@@H]1c1ccccc1 (racemic) | 80 (≈ 151 µM) |
| CN(C[C@@H]1CCC(=O)N1)[C@@H]1CC[C@H](OCc2cc(C(F)(F)F)cc(C(F)(F)F)c2)[C@H]1c1ccccc1 | 510 (≈ 991 µM) |
| NC(=O)CNC[C@@H]1CC[C@H](OCc2cc(C(F)(F)F)cc(C(F)(F)F)c2)[C@H]1c1ccccc1 (racemic) | 590 (≈ 1240 µM) |
| NC(=O)CN[C@H]1CC[C@H](OCc2cc(C(F)(F)F)cc(C(F)(F)F)c2)[C@@H]1c1ccccc1 (racemic) | 800 (≈ 1740 µM) |

Continued, values first:

| solubility [µg/mL] | SMILES |
| --- | --- |
| 1100 (≈ 2390 µM) | NC(=O)CN[C@@H]1CC[C@H](OCc2cc(C(F)(F)F)cc(C(F)(F)F)c2)[C@H]1c1ccccc1 (racemic) |
| 10 (≈ 18.4 µM) | CN(CC[C@@H]1CC[C@H](OCc2cc(C(F)(F)F)cc(C(F)(F)F)c2)[C@H]1c1ccccc1)Cc1n[nH]c(=O)[nH]1 (racemic) |
| 300 (≈ 614 µM) | CN(CC(N)=O)C[C@@H]1CC[C@H](OCc2cc(C(F)(F)F)cc(C(F)(F)F)c2)[C@H]1c1ccccc1 (racemic) |

System: not listed separately
Assay: Solubility in potassium hydrogen phosphate buffer at pH 5
Type: physicochemical
Conditions: not given

| solubility [µg/mL] | SMILES |
| --- | --- |
| 3 (≈ 5.97 µM) | O=c1[nH]nc(CN2CCO[C@H](OCc3cc(C(F)(F)F)cc(C(F)(F)F)c3)[C@@H]2c2ccccc2)[nH]1 |
| < 0.5 | C[C@@H](O[C@H]1OCCN(Cc2n[nH]c(=O)[nH]2)[C@H]1c1ccc(F)cc1)c1cc(C(F)(F)F)cc(C(F)(F)F)c1 [APREPITANT] |
